Experimental data published in publication PMC10747430, “^99mTc-Labeled Cyclic Peptide Targeting PD-L1 as a Novel Nuclear Imaging Probe” (Pharmaceutics, 2023).

Assays:
[1] = Reversed-phase radio-HPLC retention time (lipophilicity); type: physicochemical; settings: µBondapak C18 3.9 mm × 30 cm, linear gradient 0.1% TFA-acetonitrile / 0.1% TFA-water in 20 min; used as measure of lipophilicity
Procedure: For quality control of the [^99mTc]Tc-iPD-L1 and [^99mTc]Tc-WL12 formulations, parameters such as appearance (clear solution), pH (neutral), sterility, absence of bacterial endotoxins, and radiochemical purity (radio-HPLC; Waters Corporation, Milford, CT, USA; 3.9 mm × 30 cm µBondapak™ C18 column; linear gradient system; solvent A: 0.1% TFA-acetonitrile and solvent B: 0.1% TFA-water, from 100 to 30% of A in 20 min) were evaluated according to the Mexican Pharmacopoeia, in its section on “General Methods of Analysis” (MGA). The retention time of [^99mTc]Tc-WL12 was 15.0 ± 0.3 min and 15.5 ± 0.2 min for [^99mTc]Tc-iPD-L1, while the retention times of ^99mTcO4^− and [^99mTc]Tc-EDDA/tricine were 3.5 ± 0.2 min and 4.5 ± 0.2 min, respectively.
The radiochemical purities of [^99mTc]Tc-iPD-L1 and [^99mTc]Tc-WL12 were 95.5 ± 1.5% without the need for additional purification, as determined by reversed-phase radio-HPLC (Figure 8). As expected, the retention time of [^99mTc]Tc-iPD-L1 was higher than that of [^99mTc]Tc-WL12, which is associated with their CLogP values of 6.38 and 5.78, respectively.
Figure 8 Radio-chromatogram of (a) [^99mTc]Tc-iPD-L1 and (b) [^99mTc]Tc-WL12. Reversed-phase column (C18, 3.9 × 300 mm, 10µm particle size).

[2] = molecular target: T1, human recombinant PD-L1 protein (Homo sapiens, UniProt Q9NZQ7); assay: Radio-SDS-PAGE molecular recognition by PD-L1 protein; type: binding; settings: radiopeptide (1 mg/mL) incubated with PD-L1 (200 µg/mL) 30 min at 37 °C; 15% SDS-PAGE, radio-TLC scan
T1 construct: purchased FineTest P6857
T1 sequence (Q9NZQ7 19-290): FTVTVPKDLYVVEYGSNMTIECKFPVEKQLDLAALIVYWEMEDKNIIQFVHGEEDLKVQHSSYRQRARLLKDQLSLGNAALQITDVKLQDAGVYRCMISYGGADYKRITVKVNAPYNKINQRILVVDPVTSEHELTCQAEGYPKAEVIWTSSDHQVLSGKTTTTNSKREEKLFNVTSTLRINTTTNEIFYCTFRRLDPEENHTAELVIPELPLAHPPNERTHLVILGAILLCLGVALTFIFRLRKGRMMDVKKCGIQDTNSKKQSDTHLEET
Procedure: (§1) SDS-PAGE gel electrophoresis was performed. Radioactivity distribution was determined using a radio-TLC scanner (Mini-Gita, 60–150 keV, BGO-Crystal, window 25 × 2 mm, thickness 5 mm, resolution optimized for Tc-99m; RayTest, Munich, Germany) to detect [^99mTc]Tc-iPD-L1 and [^99mTc]Tc-WL12 binding to PD-L1 protein.
(§2) Briefly, ^99mTc-labeled WL12 and iPD-L1 solutions (100 µL) (1 mg/mL peptide) were incubated with human recombinant PD-L1 protein (100 µL) (200 µg/mL; FineTest; Cat: P6857) (radiopeptide-PD-L1 interaction) or human integrin αVβ3 protein (100 µL) (negative control; 200 µg/mL) (Chemicom, Merck; Burlington, MA, USA) (radiopeptide-integrin interaction) for 30 min at 37 °C, after which the samples were diluted with Laemmli sample buffer (containing 10% SDS, Tris-Cl 125 mM, pH = 6.8, 12.5% glycerol and 0.005% bromophenol blue after dye) to give final protein concentrations of 25 µg/mL. […] Finally, the radioactivity distribution on the gels was scanned using a radio-TLC detector to determine the percentage of [^99mTc]Tc-iPD-L1 or [^99mTc]Tc-WL12 radioactivity associated with proteins.
(§3) In vitro-specific recognition of [^99mTc]Tc-iPD-L1 and [^99mTc]Tc-WL12 by the PD-L1 protein was performed using a combination of radio-TLC and SDS-PAGE (radio-SDS-PAGE). […] Therefore, the radioactivity associated with free peptides is in the front of the gel plate (around 60–70 mm). […]

[3] = molecular target: T2, human integrin αVβ3 protein (Homo sapiens, UniProt P05106+P06756); assay: Radio-SDS-PAGE with integrin (negative control protein); type: binding; settings: radiopeptide incubated with integrin αVβ3 (200 µg/mL) 30 min at 37 °C, radio-TLC scan
T2 construct: purchased Chemicom, Merck
T2 sequence (P06756 31-889 limits assumed): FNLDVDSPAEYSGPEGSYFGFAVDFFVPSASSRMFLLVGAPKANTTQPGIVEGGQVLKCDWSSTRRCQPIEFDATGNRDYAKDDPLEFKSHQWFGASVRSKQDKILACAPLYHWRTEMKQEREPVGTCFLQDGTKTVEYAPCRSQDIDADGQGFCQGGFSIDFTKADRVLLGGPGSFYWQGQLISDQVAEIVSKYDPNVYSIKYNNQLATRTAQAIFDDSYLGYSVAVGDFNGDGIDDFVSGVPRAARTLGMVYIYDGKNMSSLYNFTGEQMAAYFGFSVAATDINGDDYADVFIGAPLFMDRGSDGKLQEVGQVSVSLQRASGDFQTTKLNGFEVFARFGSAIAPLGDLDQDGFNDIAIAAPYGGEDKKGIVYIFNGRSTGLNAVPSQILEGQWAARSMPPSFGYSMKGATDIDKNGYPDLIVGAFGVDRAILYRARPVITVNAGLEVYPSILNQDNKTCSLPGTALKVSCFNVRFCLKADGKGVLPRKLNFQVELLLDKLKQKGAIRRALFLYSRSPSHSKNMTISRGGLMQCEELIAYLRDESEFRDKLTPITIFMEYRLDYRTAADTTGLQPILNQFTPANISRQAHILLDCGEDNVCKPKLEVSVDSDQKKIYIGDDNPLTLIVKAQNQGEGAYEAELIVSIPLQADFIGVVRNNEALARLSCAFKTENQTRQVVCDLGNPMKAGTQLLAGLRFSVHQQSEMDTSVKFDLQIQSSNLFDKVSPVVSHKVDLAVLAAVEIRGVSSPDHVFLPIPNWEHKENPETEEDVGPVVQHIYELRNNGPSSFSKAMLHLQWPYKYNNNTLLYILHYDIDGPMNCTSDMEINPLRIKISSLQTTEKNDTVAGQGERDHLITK
T2 sequence (P06756 891-1048 limits assumed): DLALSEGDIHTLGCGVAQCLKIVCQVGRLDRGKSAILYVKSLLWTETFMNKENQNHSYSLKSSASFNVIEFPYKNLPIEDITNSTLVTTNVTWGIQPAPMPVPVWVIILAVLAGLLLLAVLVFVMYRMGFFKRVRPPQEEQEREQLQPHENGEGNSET
T2 sequence (P05106 27-788): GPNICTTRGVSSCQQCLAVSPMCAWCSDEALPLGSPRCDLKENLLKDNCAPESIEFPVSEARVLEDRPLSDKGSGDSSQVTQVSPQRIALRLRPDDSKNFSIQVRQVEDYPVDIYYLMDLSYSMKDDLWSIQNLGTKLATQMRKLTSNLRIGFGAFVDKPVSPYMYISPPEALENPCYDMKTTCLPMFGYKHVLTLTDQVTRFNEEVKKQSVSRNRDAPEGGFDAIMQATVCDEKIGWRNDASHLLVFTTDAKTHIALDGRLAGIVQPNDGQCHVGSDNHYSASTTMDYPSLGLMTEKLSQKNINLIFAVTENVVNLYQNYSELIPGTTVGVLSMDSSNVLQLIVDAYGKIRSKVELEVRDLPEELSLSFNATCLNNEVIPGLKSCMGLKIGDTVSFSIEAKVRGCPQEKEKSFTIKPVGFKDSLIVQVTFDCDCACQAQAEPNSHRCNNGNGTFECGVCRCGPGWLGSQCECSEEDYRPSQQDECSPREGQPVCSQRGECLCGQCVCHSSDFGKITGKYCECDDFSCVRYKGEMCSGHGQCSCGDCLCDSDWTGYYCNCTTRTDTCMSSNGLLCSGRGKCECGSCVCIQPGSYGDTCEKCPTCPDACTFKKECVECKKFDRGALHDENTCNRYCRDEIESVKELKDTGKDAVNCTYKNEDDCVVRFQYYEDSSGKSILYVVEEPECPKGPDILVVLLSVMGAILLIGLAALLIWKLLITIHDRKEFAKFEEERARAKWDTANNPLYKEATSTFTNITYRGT
Procedure: as §1, §2, §3

CCCC[C@H]1C(=O)N(C)[C@@H](CCCC)C(=O)N[C@@H](CCCNC(=O)c2ccc(NN)nc2)C(=O)N[C@H](C(=O)NCC(N)=O)CSCC(=O)N[C@@H](Cc2ccc(O)cc2)C(=O)N(C)[C@@H](C)C(=O)N[C@@H](CC(N)=O)C(=O)N2CCC[C@H]2C(=O)N[C@@H](Cc2c[nH]cn2)C(=O)N[C@@H](CC(C)C)C(=O)N2C[C@H](O)C[C@H]2C(=O)N[C@@H](Cc2c[nH]c3ccccc23)C(=O)N[C@@H](CO)C(=O)N[C@@H](Cc2cn(C)c3ccccc23)C(=O)N1C [[^99mTc]Tc-WL12, metal not drawn]
retention time, reversed-phase radio-HPLC [1]: 15.0 ± 0.3 min
radioactivity detected at the distance associated with the PD-L1 protein [2]: 14%
shift in radioactivity with integrin (negative control) [3]: no shift in radioactivity
